Measured values: PubChem BioAssay AID743394 (Broad Institute, 2014)
Activity calls are given as the source filed them.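 How the source made its calls: active means 40% activation versus positive control reached by fitted dose-response curve at or below highest valid tested dose; inconclusive means poor fit quality, or flat fit with activation between 30% and 70%; inactive means the rest.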

assay: Xi-linked GFP reactivating small molecules – imaging, 68-5-11 mouse fibroblasts, cherry-pick, dose response (AID 743394); conditions: 68-5-11 mouse fibroblast XiGFP reporter, % GFP-positive imaging, 3 d; at 19.5 µM (top of the series);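 further: sensitizer 5-aza-dC present in the wells at 0.5 mM final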

Structure (SMILES)	activation
Cc1cc(=O)oc2cc3c(cc12)CCCN3	0.76% (inactive)
OCC[n+]1c2ccccc2nc2ccc(N3CCOCC3)cc21	0.02% (inactive)

same assay, conditions: 68-5-11 mouse fibroblast XiGFP reporter, % GFP-positive imaging, 3 d; at 19.5 µM (top of the series); cells co-treated with 5-aza-dC sensitizer; scaled: neutral wells 0, ellipticine wells 100

Structure (SMILES)	activation
O=C(Nc1ccccc1N1CCCCC1)c1cnccn1	-0.052% (inactive)
COc1ccc(Nc2nc(N)c(C(=O)c3ccc(F)cc3)s2)cc1	0.551% (inactive)
COc1cccc(CNC(=O)CNC(=S)N(Cc2ccccc2)Cc2ccccc2F)c1	-0.015% (inactive)
CC1=NN(c2ccc(C)c(C)c2)C(=O)/C1=C\C=C\c1ccc([N+](=O)[O-])o1	-0.033% (inactive)
Cc1c(/C=N\NC(=O)c2cc3ccccc3o2)c2ccccc2n1C	-0.044% (inactive)
Nc1nc(Nc2ccc(Cl)cc2)c(NC=O)c(=O)[nH]1	-0.075% (inactive)
CCc1ccc(NS(=O)(=O)c2cccc3nonc23)cc1	-0.121% (inactive)
CCC(=O)OCCNc1cc(Sc2nc3ccccc3[nH]2)c2nonc2c1[N+](=O)[O-]	-0.037% (inactive)
Cc1cccc(CS(=O)(=O)Cc2ccc(C(=O)NCc3cccs3)o2)c1	0% (inactive)
O=C1C=CC(=O)C(CNc2ccc(C(=O)OCc3ccccc3)cc2)=C1	-0.05% (inactive)
CO[C@@H]1CN(C)C(=O)c2ccc(NC(=O)Nc3cccc(Cl)c3)cc2OC[C@H](C)N(C(=O)Nc2c(C)noc2C)C[C@H]1C	-0.002% (inactive)
Nc1c(-c2ccccc2)c(CN2CCOCC2)nn1-c1ccc(C(=O)O)cc1	-0.014% (inactive)
CCN(CC)c1ccc(/C=C(/C#N)C(=O)NCc2ccccc2)o1	12.4% (inactive)
COc1cccc(NC(=O)N(C)C[C@@H]2Oc3cc(Br)ccc3S(=O)(=O)N([C@@H](C)CO)C[C@H]2C)c1	-0.016% (inactive)
CN(Cc1cccs1)C(=O)Cc1c[nH]c2ccccc12	-0.024% (inactive)
CCCN(C(=O)c1ccc(-n2cncn2)c([N+](=O)[O-])c1)C1CCS(=O)(=O)C1 (stereo not given)	-0.007% (inactive)
COc1ccc(N2CCN(C(=O)c3cc4c(s3)-c3ccccc3OC4)CC2)cc1	0.457% (inactive)

Structure (SMILES)	activation
COc1ccc(NC(=O)Nc2ccc3c(c2)C(=O)N([C@@H](C)CO)C[C@H](C)[C@@H](CN(C)S(=O)(=O)c2ccc(OC)cc2)O3)cc1	0.014% (inactive)
CCn1c(Cl)c(C=O)s/c1=N\S(=O)(=O)c1ccccc1	1.44% (inactive)
CCNC(=O)C[C@@H]1CC[C@H]2[C@@H](COC[C@@H](O)CN2C(=O)C2CCCC2)O1	-0.016% (inactive)
CC(C)c1ccc(N2C(=O)/C(=C/N(C)C)SC2=S)cc1	0.088% (inactive)
O=C(CCC(=O)Nc1cccnc1)Nc1cccnc1	0.049% (inactive)
CCc1ccc(CN(C)C(=O)c2cc(S(=O)(=O)N3CCOCC3)ccc2N2CCCC2)cc1	-0.007% (inactive)
COc1ccccc1/C=C/C(=O)OCC(=O)NC(=O)NC1CCCC1	-0.012% (inactive)
C[C@@H]1CN([C@H](C)CO)C(=O)c2cc(NC(=O)Nc3ccc4c(c3)OCO4)ccc2O[C@@H](C)CCCCO[C@@H]1CN(C)C(=O)Cc1ccccc1	0.577% (inactive)
CC(C)c1cc(C(=O)N/N=C/c2cccnc2)cs1	0.54% (inactive)
Cc1ccc(-c2ccc3c(c2)O[C@@H](CN(C)Cc2ccncc2)[C@@H](C)CN([C@@H](C)CO)S3(=O)=O)cc1	0% (inactive)
NNc1nc2c(-c3ccc(F)cc3)nnn2c2ccccc12	0.731% (inactive)
O=C(NNC(=O)c1cc2ccccc2o1)c1ccc(Cl)cc1	0.006% (inactive)
Cc1ccc(S(=O)(=O)N2CCOCC2)cc1C(=O)OCC(=O)NC1CCS(=O)(=O)C1 (stereo not given)	-0.034% (inactive)
COc1cccc(-c2ccc(C3[C@@H]4CN(C(=O)C5CCCCC5)C[C@H]3N4)cc2)c1 (stereo not given in full)	2.76% (inactive)
CCN1CCc2c(sc(NC(=O)c3ccc4ccccc4c3)c2C(N)=O)C1	-0.008% (inactive)
C[C@H](NC(=O)C[C@@H]1CC[C@H](NC(=O)Cc2ccccn2)[C@@H](CO)O1)c1ccccc1	0.019% (inactive)
